Results published in paper PMC10198977, “Computational design of dynamic receptor—peptide signaling complexes applied to chemotaxis” (Nature Communications, 2023).
Values belong to the compound of their own block, whether it stands above or below them. Residues, ends and D or L forms follow the SMILES beside them. No end group written: not given here.

Legend:
Assay type in all cases: cell-based
[1] = system: Csedy transduced primary human T cells; experiment: Boyden chamber migration of T cells transduced with Csedy; parameters: key: migrated cells toward chemokine / migrated cells without chemoattractant; conditions: 100 nM full-length chemokine vs no chemoattractant, peak over 8 h
Procedure: (§1) Full-length chemokine purification
(§2) CXCL12 and variants expressed in pMS211 (pET21a-based) construct and purified as previously described. N-terminal His-tag and leader sequence cleaved with enterokinase to produce a final product with the correct N-terminal sequence. The final lyophilized protein was resuspended at 1 mg/ml in 0.1% BSA. Aliquots were snap frozen and stored at −80 °C.
(§3) Generation of human T cells expressing CXCR4 WT or variants
(§4) Peripheral blood mononuclear cells (PBMCs) were isolated from buffy coats by density gradient centrifugation (Lymphoprep, StemCell ref: 07851) and activated on plates coated with anti-CD3 ([…], Biolegend, ref: 317347, clone: OKT3) and anti-CD28 ([…], Biolegend, ref: 302934, clone: CD28.2) antibodies in T cell media (RPMI 10% FBS, 2 mM L-Glutamine, 1% Penicillin-Streptomycin) with IL-15 and IL-7 (Miltenyi Biotec, 10 ng/ml each, ref: 130-095-362 and ref: 130-095-765 respectively). The day before transduction, non-cell tissue culture treated 24-well plate (Greiner Bio-One, ref: 662102) was coated with retronectin (Takara Bio, ref: T100B) in PBS (7 μg/ml, 1 ml per well), and incubated overnight at 4 °C. Three days after activation, retronectin was removed and the plate was blocked with RPMI 10% FBS for 15 min at 37 °C. Then, media was removed and retroviral supernatant was centrifuged at 2000 × g, 1 h, 32 °C on retronectin-coated plates. Retroviral supernatant was gently removed and activated T cell suspension at 0.15 E^6 cells/ml was added, and centrifuged at 1000 × g, 10 min, 21 °C. Cells were incubated at 37 °C, 5% CO2, and 95% relative humidity for 3 days. After 48–72 h of transduction, T cells were harvested and further expanded in T cell media containing IL-7 and IL-15. Transduced T cells were positively selected with a PE selection kit (EasySep, ref: 17684) and an anti-HA PE-conjugated antibody (Biolegend, ref: 901518, clone: 16B12) at a 1:50 dilution to enrich transduced T cells. Enrichment of surface expression in PE-selected cells was confirmed by flow cytometry using a BD FACS LSR II cytometer (BD Biosciences) and analyzed with FlowJo software (BD Biosciences).
(§5) T cells transduced and selected for expression of CXCR4 variants from 3 to 6 donors were stained with 1 µM Vybrant DiO cell-labeling solution (Thermo, ref: V22886) in serum-free RPMI 1640 + GlutaMax. 40,000 cells in 75 µL were seeded in each well of 96-well Boyden chambers with 5.0 µm pores (Corning, ref: 3388)[44]. Reservoirs were filled with 200 µL serum-free RPMI 1640 + GlutaMax without chemoattractant or supplemented with 100 nM chemokine. The bottom of the attractant reservoir was imaged for migrated cells for 8 h with a Cytation 5 BioSpa (Biotek) at 37 °C with 5% CO2. Fluorescent spots were counted over time and compared to the no-chemoattractant control to calculate the migration index (# migrated cells towards chemoattractant / # migrated cells in absence of chemoattractant). The peak migration indices averaged between 3 technical replicates for each transduced donor per chemoattractant concentration were plotted.

[2] = system: Cdyn transduced primary human T cells; experiment: Boyden chamber migration of T cells transduced with Cdyn; conditions: 100 nM full-length chemokine vs no chemoattractant, peak over 8 h
Procedure: as §1, §2, §3, §4, §5

[3] = system: Csel2 transduced primary human T cells; experiment: Boyden chamber migration of T cells transduced with Csel2; parameters: key: migrated cells toward chemokine / migrated cells without chemoattractant; conditions: 100 nM full-length chemokine vs no chemoattractant, peak over 8 h
Procedure: as §1, §2, §3, §4, §5

[4] = system: WT CXCR4 transduced primary human T cells; experiment: Boyden chamber migration of T cells transduced with WT CXCR4; parameters: key to Migration Index: migrated cells toward chemokine / migrated cells without chemoattractant; conditions: for Migration Index: 100 nM full-length chemokine vs no chemoattractant, peak over 8 h, WT receptor
Procedure: as §1, §2, §3, §4, §5

Cdyn = Cdyn (Homo sapiens, UniProt P61073, L41A/H113N/S178A); experiment: Gαi BRET of peptides on Cdyn; parameters: Gi BRET (dEC50): unit not given here; conditions: Cdyn receptor; for Gi BRET (dEC50): vs WT:WT
Sequence of Cdyn (P61073 whole entry L41A/H113N/S178A): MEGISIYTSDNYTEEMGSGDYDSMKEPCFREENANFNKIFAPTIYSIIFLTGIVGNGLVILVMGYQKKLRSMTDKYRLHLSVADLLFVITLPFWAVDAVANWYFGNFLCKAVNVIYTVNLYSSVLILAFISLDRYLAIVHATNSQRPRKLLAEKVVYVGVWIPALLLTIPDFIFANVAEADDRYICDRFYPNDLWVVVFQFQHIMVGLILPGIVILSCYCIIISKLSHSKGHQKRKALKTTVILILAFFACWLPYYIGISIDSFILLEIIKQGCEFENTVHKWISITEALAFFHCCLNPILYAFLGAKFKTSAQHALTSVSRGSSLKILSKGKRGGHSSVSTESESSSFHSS
Procedure: (§6) Lyophilized peptides were stored at −80 °C and resuspended in assay buffer on the day of the experiment.
(§7) 40,000 HEK 293T cells were transiently transfected with WT or variant HA3-CXCR4, Gαi1−91-Rluc8, Gβ3-WT, and Gγ9-GFP2 in pcDNA3.1(+) at a ratio of 10:1:10:5 respectively. Cells were first seeded in 100 µL DMEM 10% FBS in a poly-lysine coated, white-walled, white-bottom 96-well plate. Directly after cell loading, 50 µL of the mixture containing Lipofectamine 2000 and the DNA was added on top of the cells. The cells were then left to incubate at 37 °C, 5% CO2, and 95% relative humidity for 20 h, after which, 150 µL media was refreshed. Cells were assayed 48 h post-transfection. Cells were washed with 150 µL PBS, then 40 µL BRET buffer (HBSS, 0.2% Glucose) was added to each well. Coelenterazine 400a was first added at a final concentration of 2.5 µM and BRET ratios were measured once using Mithras[2] LB 943 plate reader. After the first measurement, 40 µL of a 3x concentrated agonist solution was added to each well, and BRET ratios were measured for another 30 min using a Mithras[2] LB 943 plate reader. Mock-transfected controls were subtracted from the data. Maximum values averaged from 3 replicates were then plotted against selected concentrations and fitted to a sigmoidal curve using GraphPad Prism v9.

Csedy = Csedy (Homo sapiens, UniProt P61073); experiment: Gαi BRET of peptides on Csedy; conditions: Csedy receptor; for Gi BRET (dEC50): vs WT:WT
Sequence of Csedy (P61073 whole entry): as the sequence (P61073 whole entry L41A/H113N/S178A) above, with A41L, N113H, A178S counted along it
Procedure: as §6, §7

Gαi activation = experiment: Gαi dissociation BRET of designed receptors with WT CXCL12(1-17) peptide; parameters: Gαi BRET response: scale not given here; conditions: HEK 293T
Procedure: as §6, §7

WT CXCR4 = WT CXCR4 (Homo sapiens, UniProt P61073); experiment: Gαi BRET of peptides on WT CXCR4; conditions: for Gi BRET (dEC50): vs WT:WT, WT receptor
Sequence of WT CXCR4 (P61073 whole entry): as the sequence (P61073 whole entry L41A/H113N/S178A) above, with A41L, N113H, A178S counted along it
Procedure: as §6, §7

Csel2 = experiment: Gαi BRET of peptides on Csel2; conditions: for Gi BRET (dEC50): vs WT:WT, Csel2 receptor
Procedure: as §6, §7

Compound: full-length WT: full-length WT CXCL12 chemokine [reference compound]
Migration Index ([1]; donor/replicate 1): 4.556 | Migration Index ([1]; donor/replicate 2): 4.556 | Migration Index ([1]; donor/replicate 3): 4.738 | Migration Index ([1]; donor/replicate 4): 4.774 | Migration Index ([2]; donor/replicate 1): 3.5 | Migration Index ([2]; donor/replicate 2): 2.758 | Migration Index ([2]; donor/replicate 3): 2.302 | Migration Index ([3]; donor/replicate 1): 3.533 | Migration Index ([3]; donor/replicate 2): 2.962 | Migration Index ([3]; donor/replicate 3): 2.156 | Migration Index ([3]; donor/replicate 4): 3.087 | Migration Index ([3]; donor/replicate 5): 2.058 | enhanced migration ([4]; 100 nM WT CXCL12, vs no-attractant controls, WT CXCR4): around 1.5 -fold | Migration Index ([4]; donor/replicate 1): 1.882 | Migration Index ([4]; donor/replicate 2): 1.899 | Migration Index ([4]; donor/replicate 3): 1.407 | Migration Index ([4]; donor/replicate 4): 0.96

Compound: full-length V3Y-Y7L: full-length chemokine incorporating the designed N-terminal tail V3Y-Y7L
Migration Index ([1]; donor/replicate 1): 4.478 | Migration Index ([1]; donor/replicate 2): 3.833 | Migration Index ([1]; donor/replicate 3): 3.752 | Migration Index ([1]; donor/replicate 4): 3.787 | Migration Index ([3]; donor/replicate 1): 2.938 | Migration Index ([3]; donor/replicate 2): 2.133 | Migration Index ([3]; donor/replicate 3): 3.389 | Migration Index ([3]; donor/replicate 4): 4.146 | Migration Index ([3]; donor/replicate 5): 3.781 | Migration Index ([3]; donor/replicate 6): 2.587 | Migration Index ([4]; donor/replicate 1): 2 | Migration Index ([4]; donor/replicate 2): 2.852 | Migration Index ([4]; donor/replicate 3): 2.992

Compound: full-length V3Y: full-length chemokine incorporating the designed N-terminal tail V3Y
Migration Index ([2]; donor/replicate 1): 4.176 | Migration Index ([2]; donor/replicate 2): 5.188 | Migration Index ([2]; donor/replicate 3): 4.028 | Migration Index ([4]; donor/replicate 1): 2.294 | Migration Index ([4]; donor/replicate 2): 2.226 | Migration Index ([4]; donor/replicate 3): 3.315 | Migration Index ([4]; donor/replicate 4): 2.878 | Migration Index ([4]; donor/replicate 5): 1.825

Compound: WT CXCR4: WT CXCR4 with an N-terminal 3xHA-tag
Gαi BRET response (Gαi activation; log[WT CXCL12(1-17)] -4.17653, replicate 1): 84.4534 | Gαi BRET response (Gαi activation; log[WT CXCL12(1-17)] -4.17653, replicate 2): 83.4696 | Gαi BRET response (Gαi activation; log[WT CXCL12(1-17)] -4.65365, replicate 1): 62.5022 | Gαi BRET response (Gαi activation; log[WT CXCL12(1-17)] -4.65365, replicate 2): 62.6195 | Gαi BRET response (Gαi activation; log[WT CXCL12(1-17)] -5.13077, replicate 1): 35.993 | Gαi BRET response (Gαi activation; log[WT CXCL12(1-17)] -5.13077, replicate 2): 39.2443 | Gαi BRET response (Gαi activation; log[WT CXCL12(1-17)] -5.60789, replicate 1): 12.5404 | Gαi BRET response (Gαi activation; log[WT CXCL12(1-17)] -5.60789, replicate 2): 16.9401 | Gαi BRET response (Gαi activation; log[WT CXCL12(1-17)] -6.08501, replicate 1): 10.2917 | Gαi BRET response (Gαi activation; log[WT CXCL12(1-17)] -6.08501, replicate 2): 3.156 | Gαi BRET response (Gαi activation; log[WT CXCL12(1-17)] -8, replicate 1): -1.029 | Gαi BRET response (Gαi activation; log[WT CXCL12(1-17)] -8, replicate 2): 1.036

Compound: Y7L: CXCL12(1-17) peptide variant, Leu at P7 (KPVSLSLRCPCRFFESH-NH2; cysteine pairing not given here)
decrease in overall Gαi response (WT CXCR4; WT receptor (Fig. 3a)): 18% | Gi BRET (dEC50) (WT CXCR4; replicate 1): 0.3425 | Gi BRET (dEC50) (WT CXCR4; replicate 2): 0.267 | Gi BRET (dEC50) (WT CXCR4; replicate 3): 0.275 | Gαi efficacy increase (Csel2; Csel2 receptor (Fig. 3a)): 30% | Gi BRET (dEC50) (Csel2; replicate 1): -0.2255 | Gi BRET (dEC50) (Csel2; replicate 2): -0.0185 | Gi BRET (dEC50) (Csel2; replicate 3): -0.357

Compound: V3W: CXCL12(1-17) peptide variant V3W (KPWSLSYRCPCRFFESH-NH2; cysteine pairing not given here; UniProt P48061 22-38, looked up, variant V3W)
Efficacy, Gi (Cdyn; mean): 130.6 %WT-WT | Gi BRET (dEC50) (Cdyn; replicate 1): -1.8535 | Gi BRET (dEC50) (Cdyn; replicate 2): -2.0125 | Gi BRET (dEC50) (Cdyn; replicate 3): -2.163

The remaining lines, values ahead:

enhanced potency (Cdyn; vs WT receptor–peptide pair): more than 80 -fold | Gi BRET (dEC50) (Cdyn; replicate 1): -2.1375 | Gi BRET (dEC50) (Cdyn; replicate 2): -1.6575 | Gi BRET (dEC50) (Cdyn; replicate 3): -1.8525 | Gi BRET (dEC50) (Cdyn; replicate 4): -1.6695 | Gi BRET (dEC50) (Cdyn; replicate 5): -1.8605
Compound: CC(C)C[C@H](NC(=O)[C@H](CO)NC(=O)[C@H](Cc1ccc(O)cc1)NC(=O)[C@@H]1CCCN1C(=O)[C@@H](N)CCCCN)C(=O)N[C@@H](CO)C(=O)N[C@@H](Cc1ccc(O)cc1)C(=O)N[C@@H](CCCNC(=N)N)C(=O)N[C@@H](CS)C(=O)N1CCC[C@H]1C(=O)N[C@@H](CS)C(=O)N[C@@H](CCCNC(=N)N)C(=O)N[C@@H](Cc1ccccc1)C(=O)N[C@@H](Cc1ccccc1)C(=O)N[C@@H](CCC(=O)O)C(=O)N[C@@H](CO)C(=O)N[C@@H](Cc1c[nH]cn1)C(N)=O [V3Y] (H-KPYSLSYRCPCRFFESH-NH2; N-terminus assumed)

Efficacy, Gi (Csedy; mean): 135.5 %WT-WT | Gi BRET (dEC50) (Csedy; replicate 1): -1.6525 | Gi BRET (dEC50) (Csedy; replicate 2): -2.5125 | Gi BRET (dEC50) (Csedy; replicate 3): -1.456
Compound: V3W-Y7L: CXCL12(1-17) peptide variant V3W-Y7L (KPWSLSLRCPCRFFESH-NH2; cysteine pairing not given here; UniProt P48061 22-38, looked up, variant V3W Y7L)
